Earlier results on one compound are cited in patent US12564579B2, “Topical formulations of (1S)-1-phenyl-2-pyridin-2-ylethanamine” (priority 2020, dated 2026).

The conditions of this data set: clinical trials.

Each structure is given as a SMILES string.

Take `N[C@@H](Cc1ccccn1)c1ccccc1` [Lanicemine, (1S)-1-phenyl-2-pyridin-2-ylethanamine]: the psychotomimetic side effects result was “little or no psychotomimetic side effects”. Further, the study endpoints result (development terminated by sponsor) was “did not meet study endpoints”.
